{"source": "patent US20030104090A1", "about": "“Supplements containing annatto extracts and carotenoids and methods for using the same” (priority 2000, published 2003)", "key": {"[1]": {"tested_on": "lipoxidase", "settings": "cited from earlier work; for antioxidant activity and lipoxidase inhibition: in vitro, isolated cell or enzyme systems"}, "[2]": {"settings": "cited from earlier work"}, "[3]": {"settings": "mice, 66 mg norbixin per kilogram body weight; cited from earlier work"}, "[4]": {"assay": "Serum levels of bixin and norbixin in human volunteers on bixin supplementation (Example 1)", "type": "in vivo", "settings": "human test group, 20 milligrams bixin daily as two 10 mg capsules, during supplementation", "excerpt": "(§1) Two groups of human volunteers (3 individuals in the test group and 5 in the control group) were exposed to high oxidative stress conditions by breathing contaminated air of a high ozone level and a high concentration of smoke over a period of four to five days for one half hour per day. Both groups were given the same diets. Namely, they consumed their normal daily diets but avoided foods rich in carotenoids, particularly foods containing annatto (as a colorant), from two weeks before the exposure until two weeks after the exposure.\nDuring the period of bixin supplementation, the serum level of bixin and norbixin was zero in the control group, while the serum levels of bixin and norbixin in the individuals of the test group reached levels of 12 and 60 micrograms/liter, respectively."}, "[5]": {"settings": "rats, cited from earlier work"}, "[6]": {"settings": "mice and rats on high dietary doses; cited from earlier work"}, "[7]": {"tested_on": "DNA", "settings": "cells exposed to radiation, metal ions and peroxides, cisplatin; cited from earlier work"}, "[8]": {"tested_on": "esterification of retinol", "settings": "cited from earlier work"}, "[9]": {"tested_on": "caspase-3", "settings": "HL-60 cells; cited from earlier work"}, "[10]": {"tested_on": "NIH3T3 cells", "settings": "in combination with lovastatin, without the cytotoxicity of lovastatin alone; cited from earlier work"}, "[11]": {"tested_on": "PPARgamma and PPARalpha", "settings": "3T3-L1 adipocytes and HepG2 hepatocytes, in vitro; cited from earlier work"}, "[12]": {"tested_on": "tumor cells", "settings": "e.g. human leukemia U937; cited from earlier work"}, "[13]": {"tested_on": "xenobiotic enzymes", "settings": "rat, dietary supplementation; cited from earlier work"}, "[14]": {"settings": "rats, oral administration, gamma-radiation; cited from earlier work"}, "[15]": {"tested_on": "PIM-1, p-53, BAX, and BCL-2", "assay": "mRNA expression in isolated splenocytes cultured with concanavalin-A (Example 2)", "type": "cell-based, BALB/c mice", "settings": "splenocytes of mice fed dietary bixin", "experimental": "(§2) Female BALB/c mice and the WAZ-2T(-SA) mammary tumor cell line were used to determine the efficacy of dietary bixin in inhibiting mammary tumor development. Six mice per treatment were fed a semi synthetic AlN-93M diet containing 0, 0.006 or 0.06% bixin. After 14 days, all mice were inoculated with 2500 tumor cells (a cell load which typically produces a 65% tumor incidence in untreated controls). Tumor growth was measured daily for 50 days, at which time blood, liver, spleen, and tumors were removed and evaluated. […] Final tumor weight was 0.3 grams at 0.06% dietary bixin, 0.7 grams at 0.006% and 1.1 grams for the control without dietary bixin. Tumor latency (number of days post inoculation when mammary tumors were first palpable) was 45 days at 0.06% dietary bixin level, 38 days at 0.006%, and 30 days for the control. Results were determined to be statistically significant at the P<0.05 level. […] It may thus be concluded that the dietary bixin protected the mice from mammary tumor development by triggering genes of immune related systems rather than by an antioxidant action at the cellular level."}, "[16]": {"assay": "Acceptable daily intake (JECFA, 1982)", "set-up": "species or system human", "settings": "worked out from 0.065 mg/day/kg", "excerpt": "Bixin and its hydrolyzed form, norbixin, are used as coloring agents for human consumption, mainly in cheese (see Collins, “The role of annatto in food colouring,” Food Ingredients and Processing International, 23-27 (February 1992)). For some coloring applications, methylbixin has been commercially prepared by esterification of the […] of the bixin molecule (Zechmelster, et al., “A stereochernical study of methylbixin,” J. Am. Chem. Soc., 66:322330 (1944); Jondiko, et al., “Terpenoids and an apocarotenoid from seeds of B. orellana,” Phytochemistry, 28:3159-3162 (1989)). As a natural color additive to foods, particularly cheeses, bixin is typically added at concentrations of about 1 to 25 mg bixin per kg of food, although higher quantities may be used for some cheeses. Estimates of average daily intake of bixin compounds (usually bixin and norbixin) are of the order of 0.3 to 3 mg per day per person, although some studies report higher values, through the consumption of products such as cheeses, cake decoration, breakfast cereals, ice cream, snacks, margarine, and other foods in which bixin extract is added during food manufacture to provide color. The maximum ADI (acceptable daily intake) established by the Joint FAO/WHO Committee on Food Additives (JECFA, 1982) is 0.065 mg/day/kg body weight, expressed as bixin. […]"}, "[17]": {"tested_on": "thiobarbituric acid-reactive substances", "assay": "Oxidative stress load in the blood, modified TBAR test and free radical content (Example 1)", "type": "in vivo, human", "settings": "humans exposed to high ozone and smoke, 20 mg bixin daily", "excerpt": "as §1"}, "[18]": {"settings": "after human ingestion; cited from earlier work"}, "[19]": {"tested_on": "WAZ-2T(-SA) mammary tumor cell line", "assay": "Dietary bixin in mammary tumor development (Example 2)", "type": "in vivo, BALB/c mice", "settings": "for final tumor weight: 50 days after inoculation, control 1.1 grams; for tumor latency (days post inoculation when tumors first palpable): control 30 days", "experimental": "as §2"}, "[20]": {"tested_on": "Connexin-43", "settings": "cited from earlier work"}, "[21]": {"tested_on": "formation of cancer cells", "settings": "carcinogenesis with methylcholantrene; cited from earlier work"}, "[22]": {"settings": "JECFA 1982, expressed as bixin; cited from earlier work"}, "[23]": {"tested_on": "C3H- 1 O-T 1-2 cells", "settings": "same level as lutein and canthaxanthin, surpassed only by alpha-tocopherol; cited from earlier work"}, "[24]": {"target": "aldose reductase (Homo sapiens, UniProt P15121)", "settings": "found in annatto leaf extract; cited from earlier work"}, "[25]": {"tested_on": "hippocampal neuronal cells", "settings": "by suppressing activation of c-Src kinase; cited from earlier work"}, "[26]": {"settings": "dietary, pregnant rats; cited from earlier work"}, "[27]": {"settings": "100 milligrams per day for 35 days; cited from earlier work"}}, "note": "Read-outs that look alike come from different tables or passages of the source.", "data": [{"molecule": "COC(=O)/C=C/C(C)=C/C=C/C(C)=C/C=C/C=C(C)/C=C/C=C(C)/C=C/C(=O)OC", "note": "[methylbixin]", "values": [{"measurement": "antioxidant activity and lipoxidase inhibition", "setting": "[1]", "result": "strong antioxidant activity and lipoxidase inhibition"}]}, {"molecule": "vitamin E", "values": [{"measurement": "urinary albumin excretion rate", "setting": "[2]; humans with type 2 diabetes", "result": "significantly reduced"}, {"measurement": "plasma levels of C-reactive molecules", "setting": "[2]; patients with diabetes", "result": "decreased"}]}, {"molecule": "CC(/C=C/C=C(C)/C=C/C(=O)O)=C\\C=C\\C=C(C)\\C=C\\C=C(C)\\C=C\\C(=O)O", "note": "(stereo in doubt) [norbixin]", "values": [{"measurement": "hypoglycemia induced", "setting": "[3]", "result": "up to 22%"}, {"measurement": "serum level of norbixin", "setting": "[4]", "result": 60, "unit": "micrograms/liter"}, {"measurement": "hyperglycemia induced", "setting": "[5]; 8.5 mg dietary norbixin/kg body weight", "result": 27, "unit": "%"}, {"measurement": "hyperglycemia induced", "setting": "[5]; 74 mg/kg", "result": 53, "unit": "%"}, {"measurement": "DNA breakage in liver and kidney", "setting": "[6]", "result": "no detectable DNA breakage"}, {"measurement": "DNA protection in vitro", "setting": "[7]", "result": "protects DNA"}]}, {"molecule": "CC(C)=CCC/C(C)=C/CC/C(C)=C/CC/C(C)=C/CO", "note": "[geranylgeraniol]", "values": [{"measurement": "esterification of retinol into inactive retinyl esters", "setting": "[8]", "result": "inhibits esterification"}, {"measurement": "activation of caspase-3", "setting": "[9]", "result": "selective activation"}, {"measurement": "aberrant (oncogenic) signaling between cells", "setting": "[10]", "result": "selectively inhibits"}, {"measurement": "lipid metabolic target genes", "setting": "[11]", "result": "upregulates"}, {"measurement": "induction of apoptosis", "setting": "[12]", "result": "very potent inducer of apoptosis"}]}, {"molecule": "COC(=O)/C=C/C(C)=C\\C=C\\C(C)=C\\C=C\\C=C(C)\\C=C\\C=C(C)\\C=C\\C(=O)O", "note": "[bixin]", "values": [{"measurement": "effect on xenobiotic enzymes of lung and kidney", "setting": "[13]", "result": "induction effect"}, {"measurement": "serum level of bixin", "setting": "[4]", "result": 12, "unit": "micrograms/liter"}, {"measurement": "level of lipid peroxides in serum and liver", "setting": "[14]", "result": "significantly reduced"}, {"measurement": "mRNA expression levels of PIM-1, p-53, BAX, and BCL-2", "setting": "[15]", "result": "dose dependent effects"}, {"measurement": "maximum ADI for average human weight of 60 kg", "setting": "[16]", "result": 3.9, "unit": "mg per day"}, {"measurement": "DNA protection in vitro", "setting": "[7]", "result": "protects DNA"}, {"measurement": "oxidative stress level of the blood (modified TBAR test)", "setting": "[17]; control group high", "result": "remained normal"}, {"measurement": "free radical content of the blood", "setting": "[17]; same relation as TBAR (control high, test normal)", "result": "same relation was found"}, {"measurement": "absorption into the blood stream", "setting": "[18]", "result": "readily absorbed"}, {"measurement": "final tumor weight", "setting": "[19]; 0.006% dietary bixin", "result": 0.7, "unit": "grams"}, {"measurement": "tumor latency (days post inoculation when tumors first palpable)", "setting": "[19]; 0.006% dietary bixin", "result": 38, "unit": "days"}, {"measurement": "final tumor weight", "setting": "[19]; 0.06% dietary bixin", "result": 0.3, "unit": "grams"}, {"measurement": "mammary tumor incidence and tumor growth rate", "setting": "[19]; 0.06% dietary bixin, versus 0.006% and control", "result": "lowest"}, {"measurement": "tumor latency (days post inoculation when tumors first palpable)", "setting": "[19]; 0.06% dietary bixin", "result": 45, "unit": "days"}, {"measurement": "Connexin-43 gene expression", "setting": "[20]", "result": "does not up-regulate"}, {"measurement": "lipoxydase inhibition, modulation of lipid hydroperoxide formation", "setting": "[1]; Canfield et al.", "result": "lipoxydase inhibitor"}, {"measurement": "antioxidant activity and lipoxidase inhibition", "setting": "[1]", "result": "strong antioxidant activity and lipoxidase inhibition"}, {"measurement": "prevention of formation of cancer cells", "setting": "[21]", "result": "did not prevent"}, {"measurement": "maximum ADI (acceptable daily intake)", "setting": "[22]", "result": 0.065, "unit": "mg/day/kg body weight"}, {"measurement": "inhibition of lipid peroxidation", "setting": "[23]", "result": "potent inhibitor"}]}, {"molecule": "isoscutellarein", "values": [{"measurement": "aldose reductase inhibition", "setting": "[24]", "result": "aldose reductase inhibitor"}]}, {"molecule": "tocotrienol", "values": [{"measurement": "protection from glutamate-induced death", "setting": "[25]", "result": "protects"}, {"measurement": "bioavailability to maternal and fetal brains", "setting": "[26]", "result": "bioavailable"}, {"measurement": "reduction of total cholesterol levels", "setting": "[27]", "result": 20, "unit": "%"}]}]}
